US9763940B2, “Therapeutic use of P75 receptor antagonists” (Sanofi, priority 2011, dated 2017)
Where a name gives a salt, the structure may show the parent alone.

Key:
[1] = tested on: SHR male rats, characterized by overactive bladder (OAB); assay: Cystometry after acute oral treatment in SHR rats with spontaneous overactive bladder; format: in vivo, rat; conditions: % of control period, mean±SEM
Procedure: (§1) Male adult SHR/N Ico rats (250 g; Charles River Italy), were housed 7 days prior to the surgery with free access to standard chow and water. Animals were used in accordance with sanofi international ethical code and the international principles governing the care and treatment of laboratory animals, (E.E.E Council Directive 86/609, DJL358, 1 Cec. 12, 1987) in a fully accredited AAALAC facility.
(§2) A lower midline abdominal incision was performed under general anesthesia with 2-3% isoflurane using aseptic techniques. Their body temperature was maintained at 37° C. using a homeothermic blanket. Polyethylene tubing was inserted into the dome of the bladder and secured in place with a 6-0 nylon purse-string suture. The distal end of the tubing was sealed, tunneled subcutaneously, and externalized at the back of the neck, out of the animal's reach. At the moment of the surgery animals were 16 weeks old.
(§3) After one week from surgery, animals were placed in a Small Animal Cystometry Lab Station (MED Associates, St. Albans, Vt.) for urodynamic measurements. Prior to the start of recording the bladder was emptied and the catheter was connected via a T-tube to a pressure transducer and microinjection pump. Isotonic saline (0.9% NaCl at room temperature) was infused into the bladder at a rate of 10 ml per hour. An analytical balance beneath the wire-bottomed animal cage measured the amount of urine voided during continuous cystometry. A single cystometrogram is defined as the simultaneous recording of intravesical pressure, infused volume and voided volume during a single filling-voiding cycle. At least 4 reproducible micturition cycles are recorded (basal period) after the initial stabilization period of 25 to 30 minutes, using MED-CMG software (Catamount Research &Development Company).
Then, vehicle or compounds were administered orally at 2 ml/kg.
Due to kinetic profile of compounds, urodynamic assessment was performed 1 h after treatment and at least 4 reproducible micturition cycles were recorded.
The cystometrograms are analyzed using a specific software, SOF-552 cystometry data analysis.
The following endpoints have been considered (FIG. 1): • 1. Intercontraction intervals (sec) (ICI)—Time between micturition events (micturition interval) • 2. Threshold pressure (mmHg) (TP)—Bladder pressure immediately prior to micturition • 3. Maximum bladder pressure (mmHg) (Max P)—Highest bladder pressure associated with voiding • 4. Minimum bladder pressure (mmHg) (Min P)—Lowest bladder pressure during bladder filling • 5. Infused volume (μl) (Inf. Vol)—Volume of saline infused during the micturition cycle • 6. Average bladder pressure (mmHg) (Aver P)—Average bladder pressure during bladder filling Exclusion Criteria
In order to limit the impact of inter-group or intra-group variability, all data were expressed as % of control period (100%), as mean±standard error of mean (SEM) and were averaged per group of treatment. A one way analysis of variance (ANOVA), followed by Newman-Keuls' test or Dunnett's test, were used. A probability value of p<0.05 was regarded as significant.
Effects of an Acute Treatment with p75 Antagonists on Urodynamic Parameters in SHR Rats Characterized by Spontaneous Overactive Bladder (OAB)
• Vehicle: 0.5% Polysorbate 80 (PS80) solution in buffered methylcellulose (MC 0.6%) • Compound n°1 at 10 mg/kg: suspension (0.5% PS80 plus MC 0.6%) • Compound n°2 at 3, 10, 30 mg/kg: suspension (0.5% PS80 plus MC 0.6%) • Compound n°3 at 10 mg/kg: suspension (0.5% PS80 plus MC 0.6%) • Compound n°4 at 10 mg/kg: suspension (0.5% PS80 plus MC 0.6%) Experimental Design:
In order to investigate the role of compounds according to the invention in the micturition pathway, 5 groups of 4-12 rats are used: • Group 1, Vehicle per os (po) (n=10) • Group 2, Compound n°1 at 10 mg/kg po (n=12) • Group 3, Compound n°2 at 10 mg/kg po (n=6) • Group 4, Compound n°3 at 10 mg/kg po (n=4) • Group 5, Compound n°4 at 10 mg/kg po (n=5) […]

[2] = tested on: SHR male rats, characterized by overactive bladder (OAB); assay: Cystometry after one-week chronic treatment in SHR rats with spontaneous overactive bladder; format: in vivo, rat; conditions: 10 mg/kg po for 7 days
Procedure: as §1, §2, §3
The cystometrograms are analyzed using a specific software, SOF-552 cystometry data analysis. […]
In order to limit the impact of inter-group or intra-group variability, all data were expressed as % of control period (100%), as mean±standard error of mean (SEM) and were averaged per group of treatment. […]

[3] = 10 mg/kg po, 1 h after treatment, FIG. 2
[4] = 10 mg/kg po, 1 h after treatment, FIG. 3

## O=C(CN1CC2CCC(C1)N2c1ncc(F)cn1)N1CC=C(c2ccc(Cl)c(C(F)(F)F)c2)CC1 [compound n°1, 1-[4-(4-chloro-3-trifluoromethyl-phenyl)-3,6-dihydro-2H-pyridin-1-yl]-2-[8-(5-fluoro-pyrimidin-2-yl)-3,8-diaza-bicyclo[3.2.1]oct-3-yl]-ethanone]
[1]; [3]
  Intercontraction intervals (ICI): 195.5±15.4%
[1]; [4]
  Infused volume (bladder capacity): 194.9±15.3%

## C[C@@H]1CN(c2ccc(C(=O)O)cn2)C[C@H](C)N1CC(=O)N1CCc2nn(-c3ccccc3)cc2C1 [compound n°2, 6-{(3S,5R)-3,5-Dimethyl-4-[2-oxo-2-(2-phenyl-2,4,6,7-tetrahydropyrazolo[4,3-c]pyridin-5-yl)ethyl]piperazin-1-yl}nicotinic acid hydrochloride]
[1]; [3]
  Intercontraction intervals (ICI): 199.7±28.5%
[1]; [4]
  Infused volume (bladder capacity): 198.9±28.3%
[1]; dose response, 3 mg/kg po, FIG. 4
  Intercontraction intervals (ICI): 160.9±21.8%
[1]; dose response, 3 mg/kg po, FIG. 5
  Infused volume (bladder capacity): 160.8±21.7%
[1]; dose response, 10 mg/kg po, FIG. 4
  Intercontraction intervals (ICI): 199.7±28.5%
[1]; dose response, 10 mg/kg po, FIG. 5
  Infused volume (bladder capacity): 198.9±28.3%
[1]; dose response, 30 mg/kg po, FIG. 4
  Intercontraction intervals (ICI): 210.5±24.7%
[1]; dose response, 30 mg/kg po, FIG. 5
  Infused volume (bladder capacity): 209.9±24.5%
[2]; SHR rats
  Effect on micturition pressure parameters: no effect
[2]; cystometry 24 h after last treatment, % of control values, mean±SEM, FIG. 6
  Intercontraction intervals (ICI): 173.8±21.1%
[2]; cystometry 24 h after last treatment, % of control values, mean±SEM, FIG. 7
  Infused volume (bladder capacity): 173.7±21.1%

## C[C@@H]1CN(c2ccc(C(=O)O)cn2)C[C@H](C)N1CC(=O)N1CC=C(c2cccc3ccoc23)CC1 [compound n°3, 6-{(3S,5R)-4-[2-(4-benzofuran-7-yl-3,6-dihydro-2H-pyridin-1-yl)-2-oxoethyl]-3,5-dimethylpiperazin-1-yl}nicotinic acid]
[1]; [3]
  Intercontraction intervals (ICI): 167.2±20.3%
[1]; [4]
  Infused volume (bladder capacity): 167.14±20%

## O=C(CN1CC2CCC(C1)N2c1cccnc1)N1CCc2nn(-c3ccccc3)cc2C1 [compound n°4, 1-(2-phenyl-2,4,6,7-tetrahydropyrazolo[4,3-c]pyridin-5-yl)-2-(8-pyridin-3-yl-3,8-diazabicyclo[3.2.1]oct-3-yl)ethanone]
[1]; [3]
  Intercontraction intervals (ICI): 186.3±26.9%
[1]; [4]
  Infused volume (bladder capacity): 186.2±26.9%
